Test results published in patent US20190211317A1, “PEPTIDES AND NANOPARTICLES FOR INTRACELLULAR DELIVERY OF GENOME-EDITING MOLECULES” (Aadigen, LLC, priority 2016, published 2019).
Values joined by “and” are separate entries in the source; they are usually repeats but may differ in a detail not shown here. Equal values may be shown once.

What was measured:
[1] = test system: endogenous hPD1 gene in JURKAT and K562 cells; test: hPD1 gene editing in T cell lines (T7E1 assay); assay type: cell-based, human
Procedure: CAS9 protein was preloaded with purified sgRNA at a molar ratio of 1:1 and incubated for 10 min prior to forming complexes with peptides.
5×10^6 cells were washed twice with DPBS by centrifuging at 800 rpm for 5 minutes and resuspended in 100 ^l transfection buffer, and then transferred into the electroporation cuvette. An optimized program selected for both high transfection and high efficiency on T cells was used. After electroporation, cells were resuspended in 500 ^l pre-warmed AIM-V medium containing 10% FBS and incubated at 37° C. in 5% CO2. The transfection efficiency was evaluated after 48 hr by flow cytometry or T7E1 assay.
RNAiMAX delivery method was used as positive control. Cells were either resuspended in or overlaid with 100 μl of preformed complexes, incubated for 3-5 min, and then 300 μl of DMEM was added. […] The indel frequency in the hPD1 gene was quantified using the T7E1 assay.

[2] = test system: JURKAT and K562 cells; test: Toxicity of CPP/CAS9/gRNA complexes in T cell lines (MTT assay); assay type: cell-based, human; conditions: up to 100 nM, 24 h
Procedure: A total of 30,000 JURKAT or K562 cells seeded in 24-well plates the day prior to transfection were incubated with increasing concentrations of CPP/CAS9/gRNA complexed at 20:1 molar ratio (CPP to CAS9/gRNA) ranging from 1 nM to 200 nM for 30 min prior to addition of medium to reach a final 10% concentration of FCS. Cytotoxic response was measured 24 hours later by colorimetric MTT assay (Sigma, Germany). For MTT assay, cell culture medium was removed and replaced with PBS containing 2.5 mg/ml of MTT for 4 hours. Results correspond to the average of 3 independent experiments.

[3] = test system: U2OS, HEPG2, K562 cells and primary human fibroblasts; test: CAS9 protein expression after CPP delivery of CAS9 mRNA (ELISA); assay type: cell-based; conditions: day 3; cell types not specified
Procedure: CPP/CAS9 mRNA complexes were formed by mixing the CAS9 mRNA (0.5 μg) with CPP at a 20:1 molar ratio of CPP:CAS9 mRNA and incubating for 30 min at 37° C. prior to cell transfection. Cells were transfected according to optimized protocols for either adherent or suspension cell lines.
Human primary fibroblasts were freshly obtained and grown in flasks pre-coated with a gelatin-based coating solution and incubated in Culture Complete Growth Medium for 3 days before expansion and treatment. U2OS cells were cultured in Dulbecco's Modified Eagle's Medium (DMEM), supplemented with 2 mM glutamine, 1% antibiotics (streptomycin 10,000 μg/mL, penicillin, 10,000 IU/mL) and 10% (w/v) foetal calf serum (FCS), at 37° C. in a humidified atmosphere containing 5% CO2. 35 mm dishes seeded with 150,000 cells the day prior to transfection were grown to 50-60% confluence and set up to be at about 70% confluences at the time of transfection. Before transfection, cells were washed with DMEM (2×) followed by PBS (1×). Cells were then overlaid with 0.2 ml of complex solution (16 μl CPP/Cargo complex in water+184 μl OPTiMEM without antibiotics), mixed gently, and incubated for 10 min at 37° C. 0.8 mL of fresh OPTiMEM or DMEM was then added and cells were incubated for 20 min at 37° C. 2 mL of complete OPTiMEM (high glucose) or DMEM containing 11.4% FCS was then added in order to reach a final FCS concentration of 10%, without removing the overlay of CPP/Cargo complexes. Cells were returned to the incubator (37° C., 5% CO2) and assayed at 72 hours post transfection.
K562 and HEpG2 cells were set up to be at about 70% confluence at the time of transfection. The cells were maintained in high glucose DMEM media with 10% serum. Before transfection, cells were harvested by centrifugation, then washed with DMEM (2×) followed by PBS (1×). Cells were then resuspended in 0.2 ml of complex solution (16 μl CPP/Cargo complex in water+184 μl OPTiMEM without antibiotics), mixed gently, and incubated for 10 min at 37° C. 0.8 mL of fresh OPTiMEM was then added and cells were incubated for 20 min at 37° C. 2 mL of complete OPTiMEM (high glucose) containing 11.4% FCS was then added in order to reach a final FCS concentration of 10%, without removing the overlay of CPP/Cargo complexes. Cells were returned to the incubator (37° C., 5% CO2) and assayed at 72 hours post transfection.
RNAiMAX lipid-based delivery (Invitrogen Thermo Fisher France) was used as a control and transfections were performed following the manufacturer's instructions. CAS9 expression level was analyzed at multiple time points over a period of 10 days as determined by ELISA on protein extracts using antibodies against CRISPR/Cas9 obtained from Diagenode (Diagenode cat. No. C15200223) and ABCAM (clone 7A9-ab191468).

[4] = test system: Primary T cells
Procedure: The toxicity of CPP/CAS9/gRNA complexes was investigated in the two cell lines (JURKAT and K562) and in PBMC-isolated T cells. Cell viability was determined using either MTT assay or 7-AAD.
Data were normalized to untransfected cells and compared to T cells incubated with free CAS9/gRNA.

[5] = test system: HPRT gene in mouse muscle myoblast cells (C2C12); test: HPRT gene editing in C2C12 myoblasts (T7E1 assay); assay type: cell-based
Procedure: (§1) […] Delivery by RNAiMAX was included as a positive control.
(§2) CAS9-induced NHEJ was analyzed 72 hours after transfection by PCR (FIG. 26) and T7E1 assay (FIG. 27). The deletion (indel) frequencies in the HPRT gene were quantified using a T7E1 assay by quantifying the amount of uncut vs cut DNA using a Fragment Analyzer System. Data for on-target mutations induced by RGEN/gRNA are reported as an average of 3 separate experiments
(§3) The cell line was maintained in 5% CO2 at 37° C. and cell viability was assessed by the Trypan Blue exclusion test. To induce myogenic differentiation, at about 80% cell confluence the medium containing 10% fetal calf serum was substituted with medium containing 1% fetal calf serum. The cells were transfected at the undifferentiated stage or at day 7 after differentiation.

[6] = test system: E-Catenin gene in mouse muscle myoblast cells (C2C12); test: ü-Catenin gene disruption in C2C12 myoblasts (PCR gel); assay type: cell-based; conditions: undifferentiated and differentiated C2C12
Procedure: Cells were transfected with CAS9/gRNA (2.5 μM/5 μM) complexes associated with CPP (+) or not (−) at a molar ratio of 20:1 (peptide to complex) and compared to delivery by RNAiMAX for E-Catenin expression. ü-actin expression was included as a loading control.
as §1, §2, §3

[7] = test system: hPD1 gene in human T cells; test: hPD1 gene editing in primary human T cells (T7E1 assay); assay type: cell-based
Procedure: T cells were isolated from PBMCs (2 different donors) using anti-CD3/anti-CD28 antibodies bound to paramagnetic beads (Dynabeads ClinExVivo CD3/CD28, Invitrogen) at a ratio of 3:1 (beads:cells). The cells and beads were co-incubated for 2 hours at room temperature and CD3′ cell enrichment was performed using Dynal ClinExVIVO MPC magnet (Thermo Fisher). The anti-CD3/anti-CD28 paramagnetic beads were removed, washed and concentrated. Cells in the CD3′ fraction were resuspended in activation media at a concentration of 1×10^6 cells/ml with AIM-V medium (Thermo Fishers) supplemented with 10% fetal calf serum, 300 IU/ml IL2 and 50 ng/ml OKT3 (MuromonAB-CD3) for two days.
Cells were transfected by electroporation with CD-19 plasmid or gRNA/CAS9 (5 μg/10 μg) using a Nucleofector 2b (Lonza, Germany) with the Amaxa Human T cells Nucleofector Kit, VPA-1002 (Lonza, Germany). 5×10^6 cells were washed twice with DPBS by centrifuging at 800 rpm for 5 minutes and resuspended in 100 ^l transfection buffer, and then transferred into the electroporation cuvette. An optimized program selected for both high transfection and high efficiency on T cells was used. After electroporation, cells were resuspended in 500 ^l pre-warmed AIM-V medium containing 10% FBS and incubated at 37° C. in 5% CO2. The transfection efficiency was evaluated after 48 hr by flow cytometry or T7E1 assay.
As control, CAS9 loaded with gRNA targeting GFP was used.
Cells were returned to the incubator for 72 hours. CAS9-induced double-strand break followed by repair through non-homologous end joining (NHEJ) was analyzed by either the T7E1 assay or using the Genome Cleavage Detection kit (GCD Thermo Fisher) and quantified using Fragment Analyzer System. The indel frequency in the target gene was quantified using the T7E1 assay. The cultures were expanded and analyzed for viability and PD1 levels every 10 days. T cell expansion medium contained AIM V medium, supplemented with 5% heat-inactivated human AB Serum, 1% Gluta-Max, and 300 IU/mL IL-2.

[8] = Particle size, polydispersity and zeta potential with different cargoes (Zetasizer NANO ZS P); assay type: physicochemical; conditions: 20:1
Procedure: The CPP/CAS9-protein, CPP/CAS9-protein/sgRNA, CPP/CAS9-mRNA, CPP/CAS-mRNA/sgRNA particles were characterized; the mean size, polydispersity, and zeta potential were measured with a Zetasizer NANO ZS P apparatus (Malvern Ltd).
The mean size and the polydispersity of the CCP/cargo complexes were determined at 25° C. for 5 min per measurement and zeta potential was measured with a Zetasizer NANO ZS P apparatus (Malvern Ltd).

[9] = test system: hPD1 gene in human T cells; test: Simultaneous delivery of CAR plasmid and CAS9/gRNA: hPD1 editing (T7E1); assay type: cell-based; conditions: for mean indel frequency: two donors
Procedure: Cells were incubated for 5 min, then 300 μl of serum free RPMI-1640 medium was added. After 30 min, 1.2 mL of full medium was added and serum level was adjusted to 10%. As control, CAS9 loaded with gRNA targeting GFP was used. For comparison with electroporation methods, cells were transfected with the anti-CD-19 CAR plasmid (5 μg) and gRNA/CAS9 (5 μg/10 μg) using Nucleofector 2b (Lonza, Germany) with the Amaxa Human T cells Nucleofector Kit, VPA-1002 (Lonza, Germany).
On day 5, the level of transduced and untransduced cells was analyzed, and cells were transferred to fresh T cell expansion medium. The cultures were analyzed for viability and anti-CD19 CAR expression by flow cytometry. The expression of the anti-CD19 CAR in the T cells was evaluated by flow cytometry using a Protein L assay. […] 7-AAD (Sigma) was used to determine viability. CAS9-induced double-strand break followed by repair through NHEJ system was analyzed by either the T7E1 assay or using the Genome Cleavage Detection kit (GCD Thermo Fisher) and quantified using Fragment Analyzer System. The indel frequency in the target gene was quantified using the T7E1 assay. The cultures were expanded and analyzed for viability, anti-CD19 expression and PD I level every 10 days. T cell expansion medium contained AIM V medium, supplemented with 5% heat-inactivated human AB Serum, 1% Gluta-Max, and 300 IU/mL IL-2.

[10] = test system: U2OS and HEPG2 cell lines and primary human fibroblasts; test: CAS9 protein expression after CPP delivery of CAS9-expressing plasmid (ELISA); assay type: cell-based; conditions: U2OS, HEPG2, primary human fibroblasts; day 6; plasmid 0.5 μg
Procedure: CPP/plasmid complexes were prepared by mixing 0.5 μg of a CAS9-expressing plasmid (Addgene MLM3639-Plasmid #42252) with CPP at a 20:1 molar ratio of CPP:cargo and incubating for 30 min at 37° C. prior to cell transfection. Cells were transfected according to the protocols for adherent and suspension cells described in Example 13a. Lipofectamine 2000 was used as lipid-based delivery control. CAS9 protein expression level was analyzed at multiple time points over a period of 10 days as determined by ELISA on protein extracts using antibodies against CRISPR/Cas9 obtained from Diagenode (Diagenode cat. No. C15200223) and ABCAM (clone 7A9-ab191468).

[11] = test system: primary human T cells; test: CAS9 protein expression in primary human T cells after CAS9 mRNA or plasmid delivery (ELISA); assay type: cell-based; conditions: day 3
Procedure: T cells were isolated from PBMCs using anti-CD3/anti-CD28 antibodies bound to paramagnetic beads (Dynabeads ClinExVivo CD3/CD28, Invitrogen) at a ratio of 3:1 (beads:cells). The cells and beads were co-incubated for 2 hours at room temperature and CD3^+ cell enrichment was performed using Dynal ClinExVIVO MPC magnet (Thermo Fisher). The anti-CD3/anti-CD28 paramagnetic beads were removed, washed and concentrated. Cells in the CD3^+ fraction were resuspended in activation media at a concentration of 1×10^6 cells/ml with AIM-V medium (Thermo Fishers) supplemented with 10% fetal calf serum, 300 IU/ml IL2 and 50 ng/ml OKT3 (MuromonAB-CD3) for two days.
CPP/CAS9 complexes were formed by mixing the CAS9 mRNA (0.5 μg) with CPP at a 20:1 molar ratio of CPP:CAS9 mRNA and incubating for 30 min at 37° C. prior to cell transfection. CPP/CAS9-expressing plasmid complexes were formed by mixing the CAS9-expressing plasmid (Addgene MLM3639-Plasmid #42252) (0.5 μg) with CPP at a 20:1 molar ratio of CPP:plasmid and incubating for 30 min at 37° C. prior to cell transfection.
Cells were transfected according to the protocol for suspension cells described in Example 13a. RNAiMAX and lipofectamine 2000 lipid-based delivery methods (Invitrogen Thermo Fisher France) were used as controls, and transfections were performed following the manufacturer's instructions. CAS9 protein expression level was analyzed at multiple time points over a period of 10 days as determine by ELISA on protein extracts using antibodies against CRISPR/Cas9 obtained from Diagenode (Diagenode cat. No. C15200223) and ABCAM (clone 7A9-ab191468).

[12] = test system: Swiss mice; conditions: CAS9 protein 5 μg/VEPEP-3a 20:1; single i.v.; 12-72 hr
Procedure: Free CAS9 protein in physiological buffer was injected as a negative control, and administration of LPS was used as a positive control for cytokine activation. […] Serum cytokine levels were measured using The Cytokine Mouse Magnetic 20-Plex Panel from Invritrogen (LMC 0006M).

[13] = Donor 1, CAS9/sgRNA 2.5 μg/5 μg
[14] = Donor 2, CAS9/sgRNA 2.5 μg/5 μg

In the case of `N=C(N)NCCC[C@H](NC(=O)[C@H](CCCNC(=N)N)NC(=O)[C@H](CCCCN)NC(=O)[C@H](CCCNC(=N)N)NC(=O)[C@@H]1CCCN1C(=O)[C@H](Cc1c[nH]c2ccccc12)NC(=O)[C@H](CCC(=O)O)NC(=O)[C@H](CCCNC(=N)N)NC(=O)[C@H](Cc1ccccc1)NC(=O)[C@H](Cc1c[nH]c2ccccc12)NC(=O)[C@H](CCCNC(=N)N)NC(=O)[C@H](CCC(=O)O)NC(=O)[C@H](Cc1ccccc1)NC(=O)[C@H](Cc1c[nH]c2ccccc12)NC(=O)[C@H](CCCCN)NC(=O)CCN)C(=O)O` [VEPEP-3a], the “Mean indel Frequency ± s.e.m” value ([1]; JURKAT, CAS9/sgRNA 2.5 μg/5 μg) is reported as 72 ± 5%, the “Mean indel Frequency ± s.e.m” value ([1]; JURKAT, CAS9/sgRNA 5 μg/10 μg) is reported as 78% and 78 ± 7% and the “Mean indel Frequency ± s.e.m” value ([1]; K562, CAS9/sgRNA 2.5 μg/5 μg) is reported as 71 ± 6%. For the same compound, the “Mean indel Frequency ± s.e.m” value ([1]; K562, CAS9/sgRNA 5 μg/10 μg) was 75% and 75 ± 6%, the toxicity [2] was “no toxicity” and the “ELISA signal for CAS9 protein expression” value [3] was “little to no increase”. For the same compound, the average viability [4] was at least 80%, the mean indel frequency ([5]; differentiated C2C12) was 73% and the mean indel frequency ([5]; undifferentiated C2C12, 5 μg/10 μg CAS9/gRNA, 20:1) was 81%. For the same compound, the “editing of ü-Catenin and HPRT genes” value [6] was “robust editing”, the “Mean indel Frequency ± s.e.m” value [7, 13] was 62 ± 5% and the “Mean indel Frequency ± s.e.m” value ([7]; Donor 1, CAS9/sgRNA 5 μg/10 μg) was 65 ± 5%. For the same compound, the “Mean indel Frequency ± s.e.m” value [7, 14] was 67 ± 8%, the “Mean indel Frequency ± s.e.m” value ([7]; Donor 2, CAS9/sgRNA 5 μg/10 μg) was 70 ± 5% and the “mean indel frequency of hPD1 gene” value ([7]; T cells from the two donors, 5 μg/10 μg CAS9/gRNA) was 66%. For the same compound, the “formation of stable nanoparticles” value ([8]; with CAS9-protein and CAS9-protein/gRNA complex) was “able to form stable nanoparticles”, the Mean diameter ([8]; with CAS9-protein and CAS9-protein/gRNA) was “about 60 nm” and the “Mean indel Frequency ± s.e.m” value [9, 13] was 51 ± 5%. The “Mean indel Frequency ± s.e.m” value ([9]; Donor 1, CAS9/sgRNA 5 μg/10 μg) was 57 ± 2%, the “Mean indel Frequency ± s.e.m” value [9, 14] was 53 ± 5% and the “Mean indel Frequency ± s.e.m” value ([9]; Donor 2, CAS9/sgRNA 5 μg/10 μg) was 58 ± 8%. For the same compound, the mean indel frequency ([9]; 2.5 μg/5 μg CAS9/gRNA) was “approximately 50%”, the mean indel frequency ([9]; 5 μg/10 μg CAS9/gRNA) was about 57% and the “ELISA signal for CAS9 protein expression” value [10] was “little to no increase”. For the same compound, the “ELISA signal for CAS9 protein expression” value ([11]; CAS9-expressing plasmid 0.5 μg) was “little to no CAS9 expression”, the “ELISA signal for CAS9 protein expression” value ([11]; CAS9 mRNA 0.5 μg) was “little to no CAS9 expression” and the non-specific cytokine induction [12] was “little to no impact”.
